Assay results published in patent publication US6737383B1, “Herbicidal oxadiazolidines” (priority 1999, dated 2004).

How the values were obtained:
[1] = tested on: bedstraw; experiment: Test B pre/postemergence bedstraw; assay type: in vivo, Galium aparine; settings: Preemergence
Outline: (§1)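 Response is a visual 0-to-10 score relative to untreated plants, where 0 means no effect and 10 means complete control, taken twelve to sixteen days after application. Treatments went onto soil at planting and onto foliage of 1- to 4-leaf plants, using a surfactant-containing non-phytotoxic solvent.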

[2] = tested on: blackgrass; experiment: Test B pre/postemergence blackgrass; assay type: in vivo, Alopecurus myosuroides
Outline: as §1

[3] = tested on: surinam grass; experiment: Test B pre/postemergence surinam grass; assay type: in vivo, Brachiaria decumbens
Outline: as §1

[4] = tested on: cocklebur; experiment: Test B pre/postemergence cocklebur; assay type: in vivo, Xanthium strumarium
Outline: as §1

[5] = tested on: corn; experiment: Test B pre/postemergence corn; assay type: in vivo, Zea mays
Outline: as §1

[6] = tested on: crabgrass; experiment: Test B pre/postemergence crabgrass; assay type: in vivo, Digitaria sanguinalis
Outline: as §1

[7] = tested on: giant foxtail; experiment: Test B pre/postemergence giant foxtail; assay type: in vivo, Setaria faberii
Outline: as §1

[8] = tested on: morningglory; experiment: Test B pre/postemergence morningglory; assay type: in vivo, Ipomoea hederacea
Outline: as §1

[9] = tested on: pigweed; experiment: Test B pre/postemergence pigweed; assay type: in vivo, Amaranthus retroflexus
Outline: as §1

[10] = tested on: rape; experiment: Test B pre/postemergence rape; assay type: in vivo, Brassica napus
Outline: as §1

[11] = tested on: soybean; experiment: Test B pre/postemergence soybean; assay type: in vivo, Glycine max
Outline: as §1

[12] = tested on: sugar beet; experiment: Test B pre/postemergence sugar beet; assay type: in vivo, Beta vulgaris
Outline: as §1

[13] = tested on: velvetleaf; experiment: Test B pre/postemergence velvetleaf; assay type: in vivo, Abutilon theophrasti
Outline: as §1

[14] = tested on: wheat; experiment: Test B pre/postemergence wheat; assay type: in vivo, Triticum aestivum
Outline: as §1

[15] = tested on: wild oat; experiment: Test B pre/postemergence wild oat; assay type: in vivo, Avena fatua
Outline: as §1

[16] = tested on: purple nutsedge; experiment: Test B pre/postemergence purple nutsedge; assay type: in vivo, Cyperus rotundus
Outline: as §1

[17] = Postemergence, Rate 62 g/ha, scale of 0 to 10, 0 is no effect, 10 is complete control
[18] = Postemergence, Rate 125 g/ha, scale 0 to 10, 0 is no effect, 10 is complete control
[19] = Postemergence, Rate 500 g/ha, scale of 0 to 10 where 0 is no effect and 10 is complete control
[20] = Preemergence, Rate 62 g/ha, scale 0 to 10 (0 no effect, 10 complete control)
[21] = Preemergence, Rate 125 g/ha, scale 0 to 10, 0 is no effect, 10 is complete control
[22] = Preemergence, Rate 500 g/ha, scale of 0 to 10 where 0 is no effect and 10 is complete control
[23] = Rate 250 g/ha, Postemergence, scale of 0 to 10 where 0 is no effect and 10 is complete control

## CC(C)N(C(=O)n1oc(=O)n(CCC(F)=C(F)F)c1=O)c1ccccc1 [Compound 566]
[1]; Rate 62 g/ha, scale 0 to 10 (0 no effect, 10 complete control)
  Bedstraw plant response rating: 0
[1]; Rate 125 g/ha, scale 0 to 10, 0 is no effect, 10 is complete control
  Bedstraw plant response rating: 0
[1]; Rate 250 g/ha
  Bedstraw plant response rating (0 to 10 scale): 0
[1]; Rate 500 g/ha, scale of 0 to 10 where 0 is no effect and 10 is complete control
  Bedstraw plant response rating: 0
[2]; [17]
  Blackgrass plant response rating: 0
[2]; [18]
  Blackgrass plant response rating: 2
[2]; [19]
  Plant response rating, Blackgrass: 6
[2]; [20]
  Blackgrass plant response rating: 3
[2]; [21]
  Blackgrass plant response rating: 9
[2]; Preemergence, Rate 250 g/ha
  Blackgrass plant response rating (0 to 10 scale): 10
[2]; [22]
  Blackgrass plant response rating: 10
[2]; [23]
  Plant response rating, Blackgrass: 3
[3]; [17]
  B. signalgrass plant response rating: 2
[3]; [18]
  B. signalgrass plant response rating: 8
[3]; [19]
  Plant response rating, B. signalgrass: 9
[3]; [20]
  B. signalgrass plant response rating: 9
[3]; [21]
  B. signalgrass plant response rating: 9
[3]; Preemergence, Rate 250 g/ha
  B. signalgrass plant response rating (0 to 10 scale, 0 is no effect, 10 is complete control): 10
[3]; [22]
  B. signalgrass plant response rating: 9
[3]; [23]
  Plant response rating, B. signalgrass: 8
[4]; [17]
  Cocklebur plant response rating: 2
[4]; [18]
  Cocklebur plant response rating: 2
[4]; [19]
  Plant response rating, Cocklebur: 3
[4]; [20]
  Cocklebur plant response rating: 0
[4]; [21]
  Cocklebur plant response rating: 0
[4]; Preemergence, Rate 250 g/ha
  Cocklebur plant response rating (0 to 10 scale): 0
[4]; [22]
  Cocklebur plant response rating: 0
[4]; [23]
  Plant response rating, Cocklebur: 2
[5]; [17]
  Corn plant response rating: 0
[5]; [18]
  Corn plant response rating: 0
[5]; [19]
  Plant response rating, Corn: 2
[5]; [20]
  Corn plant response rating: 0
[5]; [21]
  Corn plant response rating: 2
[5]; Preemergence, Rate 250 g/ha
  Corn plant response rating (0 to 10 scale): 2
[5]; [22]
  Corn plant response rating: 9
[5]; [23]
  Plant response rating, Corn: 2
[6]; [17]
  Crabgrass plant response rating: 2
[6]; [18]
  Crabgrass plant response rating: 8
[6]; [19]
  Plant response rating, Crabgrass: 9
[6]; [20]
  Crabgrass plant response rating: 9
[6]; [21]
  Crabgrass plant response rating: 9
[6]; Preemergence, Rate 250 g/ha
  Crabgrass plant response rating (0 to 10 scale): 9
[6]; [22]
  Crabgrass plant response rating: 10
[6]; [23]
  Plant response rating, Crabgrass: 10
[7]; [17]
  Giant foxtail plant response rating: 0
[7]; [18]
  Giant foxtail plant response rating: 8
[7]; [19]
  Plant response rating, Giant foxtail: 9
[7]; [20]
  Giant foxtail plant response rating: 9
[7]; [21]
  Giant foxtail plant response rating: 10
[7]; Preemergence, Rate 250 g/ha
  Giant foxtail plant response rating (0 to 10 scale): 10
[7]; [22]
  Giant foxtail plant response rating: 10
[7]; [23]
  Plant response rating, Giant foxtail: 8
[8]; [17]
  Morningglory plant response rating: 5
[8]; [18]
  Morningglory plant response rating: 5
[8]; [19]
  Plant response rating, Morningglory: 10
[8]; [20]
  Morningglory plant response rating: 0
[8]; [21]
  Morningglory plant response rating: 0
[8]; Preemergence, Rate 250 g/ha
  Morningglory plant response rating (0 to 10 scale): 0
[8]; [22]
  Morningglory plant response rating: 0
[8]; [23]
  Plant response rating, Morningglory: 6
[9]; [17]
  Redroot pigweed plant response rating: 3
[9]; [19]
  Plant response rating, Redroot pigweed: 5
[9]; [20]
  Redroot pigweed plant response rating: 0
[9]; [21]
  Redroot pigweed plant response rating: 9
[9]; Preemergence, Rate 250 g/ha
  Redroot pigweed plant response rating (0 to 10 scale): 9
[9]; [22]
  Redroot pigweed plant response rating: 10
[10]; [17]
  Rape plant response rating: 0
[10]; [18]
  Rape plant response rating: 0
[10]; [19]
  Plant response rating, Rape: 9
[10]; [20]
  Rape plant response rating: 0
[10]; [21]
  Rape plant response rating: 0
[10]; Preemergence, Rate 250 g/ha
  Rape plant response rating (0 to 10 scale): 7
[10]; [22]
  Rape plant response rating: 10
[10]; [23]
  Plant response rating, Rape: 9
[11]; [17]
  Soybean plant response rating: 4
[11]; [19]
  Plant response rating, Soybean: 6
[11]; [20]
  Soybean plant response rating: 0
[11]; [21]
  Soybean plant response rating: 0
[11]; Preemergence, Rate 250 g/ha
  Soybean plant response rating (0 to 10 scale): 0
[11]; [22]
  Soybean plant response rating: 0
[11]; [23]
  Plant response rating, Soybean: 6
[12]; [17]
  Sugarbeets plant response rating: 0
[12]; [19]
  Plant response rating, Sugarbeets: 5
[12]; [20]
  Sugarbeets plant response rating: 0
[12]; [21]
  Sugarbeets plant response rating: 4
[12]; Preemergence, Rate 250 g/ha
  Sugarbeets plant response rating (0 to 10 scale): 6
[12]; [22]
  Sugarbeets plant response rating: 6
[13]; [17]
  Velvetleaf plant response rating: 3
[13]; [19]
  Plant response rating, Velvetleaf: 5
[13]; [20]
  Velvetleaf plant response rating: 0
[13]; [21]
  Velvetleaf plant response rating: 0
[13]; Preemergence, Rate 250 g/ha
  Velvetleaf plant response rating (0 to 10 scale): 0
[13]; [22]
  Velvetleaf plant response rating: 2
[13]; [23]
  Plant response rating, Velvetleaf: 5
[14]; [17]
  Wheat plant response rating: 0
[14]; [19]
  Plant response rating, Wheat: 4
[14]; [20]
  Wheat plant response rating: 0
[14]; [21]
  Wheat plant response rating: 6
[14]; Preemergence, Rate 250 g/ha
  Wheat plant response rating (0 to 10 scale): 6
[14]; [22]
  Wheat plant response rating: 7
[14]; [23]
  Plant response rating, Wheat: 0
[15]; [17]
  Wild oats plant response rating: 0
[15]; [19]
  Plant response rating, Wild oats: 4
[15]; [20]
  Wild oats plant response rating: 3
[15]; [21]
  Wild oats plant response rating: 9
[15]; Preemergence, Rate 250 g/ha
  Wild oats plant response rating (0 to 10 scale): 8
[15]; [22]
  Wild oats plant response rating: 10
[15]; [23]
  Plant response rating, Wild oats: 0
[16]; [17]
  Nutsedge plant response rating: 0
[16]; [18]
  Nutsedge plant response rating: 0
[16]; [19]
  Plant response rating, Nutsedge: 0
[16]; [20]
  Nutsedge plant response rating: 0
[16]; [21]
  Nutsedge plant response rating: 0
[16]; Preemergence, Rate 250 g/ha
  Nutsedge plant response rating (0 to 10 scale): 0
[16]; [22]
  Nutsedge plant response rating: 0
